Assay results reported in PMC7790557, “Pleiotropic Properties of Amphiphilic Dihydropyridines, Dihydropyridones, and Aminovinylcarbonyl Compounds” (Oxidative Medicine and Cellular Longevity, 2020).
Where two headings read alike, the source gives them in different places.

Key:
[1] = cited from earlier work
[2] = previous results; cited from earlier work
[3] = system: HT-1080 (human lung fibrosarcoma); assay: Cytotoxicity, MTT assay, HT-1080; assay type: cell-based; settings: Homo sapiens, HT-1080, 72 h exposure, read-out: HT-1080 IC50 (MTT)
From the text: (§1) Reduction takes place only when mitochondrial reductase enzymes are active, and therefore, conversion is directly related to the number of viable cells which can be quantified by the absorbance of the solution (between λ = 500 and 600 nm) using a spectrophotometer.

[4] = system: NIH3T3 (mouse embryonic fibroblast); assay: Basal cytotoxicity test, Neutral Red Uptake (NRU) assay; settings: Mus musculus, NIH3T3, 24 h
Description: The NRU cytotoxicity assay procedure is based on the ability of viable cells to incorporate and bind neutral red, a supravital dye.
Balb/c NIH 3T3 (mouse Swiss albino embryo fibroblast, ATCC® CRL-1658™) cells (9000 cells/well) were placed into 96-well plates for 24 h in Dulbecco's modified Eagle's medium (DMEM) containing 5% fetal bovine serum. Then, the cells were exposed to the test compound over a range of seven concentrations (1000, 316, 100, 31, 10, 3, and 1 μg/ml) for 24 h. Untreated cells were used as a control. After 24 h, the medium was removed from all plates. Then, 150 μl of neutral red solution was added (0.05 mg/ml NR in DMEM 24 h preincubated at 37°C and then filtered before use through a 0.22 μm syringe filter). Plates were incubated for 3 h, and then, the cells were washed three times with PBS. The dye within viable cells was released by extraction with a mixture of acetic acid, ethanol, and water (1 : 50 : 49). The absorbance of neutral red was measured using a spectrophotometer multiplate reader (Tecan Infinite M1000) at 540 nm. The optical density (OD) was calculated using the following formula: OD (treated cells) × 100/OD (control cells). The IC50 values were calculated using the GraphPad Prism® 3.0 program.

MH-22A (mouse hepatoma) [5] = assay: Cytotoxicity, MTT assay, MH-22A; assay type: cell-based; settings: Mus musculus, 72 h exposure, read-out: MH-22A IC50 (MTT)
From the text: as §1

MH-22A (mouse hepatoma) [6] = assay: Cytotoxicity, crystal violet (CV) assay, MH-22A; assay type: cell-based; settings: Mus musculus, 72 h exposure, read-out: MH-22A IC50 (CV)
Description: (§2) After incubation, the staining solution was removed. The cells were washed 4 times with water.

[7] = Electrochemical oxidation potentials, cyclic voltammetry; assay type: physicochemical; settings: glassy carbon electrode, dry acetonitrile; for Oxidation potential E^ox: Table 4, vs Ag/Ag+, 0.1 M TBABF4, tested as perchlorates; for electrooxidation potential: cyclic voltammetry
Description: A stationary glassy carbon disk electrode (d = 0.5 mm) served as the working electrode, while the counterelectrode was a Pt wire. The oxidation potentials were measured relative to a Ag/Ag^+ reference electrode. Acetonitrile was dried over P2O5 and distilled; the distillate was stored over CaH2 and redistilled just before use. Recrystallized tetrabutylammonium tetrafluoroborate (TBABF4) was used as a supporting electrolyte at 0.1 M concentration.
The electrochemical oxidation of the selected compounds studied in this work was performed by cyclic voltammetry on a stationary glassy carbon electrode in dry acetonitrile; the data is presented in Table 4. The perchlorates of the tested amphiphiles were obtained from the corresponding bromides by treating their abs. MeOH solutions with excess of conc. HClO4 according to the procedure elaborated by Turovska et al..

NIH3T3 = assay: in vitro; settings: mouse
[8] = system: HT-1080 (human lung fibrosarcoma); assay: Cytotoxicity, crystal violet (CV) assay, HT-1080; settings: Homo sapiens, HT-1080, 72 h, read-out: HT-1080 IC50 (CV)
Description: IC50 is the compound concentration (μg/ml) at which 50% of the cells die. […] CV staining can be used to quantify the total DNA of the remaining population and thus is used to determine the number of live cells based on the concentration of the dye which remains after staining.
Tumor cell lines HT-1080 (human connective tissue fibrosarcoma, ATCC® CCL-121™) and MH-22A (mouse hepatocarcinoma, ECACC, cat. Nr. 96121721) were used.
HT-1080 and MH-22A cells were seeded in 96-well plates in Dulbecco's modified Eagle's (DMEM) medium containing 10% fetal bovine serum and 4 mM L-glutamine, without antibiotics, and cultivated for 72 h by exposure to different concentrations of compounds. Cell viability was measured using 3-(4,5-dimethylthiazol-2-yl)-2,5-diphenyltetrazolinium bromide (MTT). In brief, after incubating with compounds, the culture medium was removed and fresh medium with 0.2 mg/ml MTT was added in each well of the plate. After incubation (3 h, 37°C, 5% CO2), the medium with MTT was removed, and 200 μl DMSO was added at once to each sample. The samples were tested at 540 nm on a Tecan Infinite M1000 multiplate reader. The IC50 was calculated using the program GraphPad Prism® 3.0.
For the CV assay, cells were stained with 0.05% crystal violet (Sigma-Aldrich) in 30% methanol for 20 minutes at room temperature. After incubation, the staining solution was removed. The cells were washed 4 times with water. For dye solubilization, 200 μl of a solubilizing solution (0.1 M citrate buffer, pH 4.2 in 50% ethanol; 1 : 1 v/v) was added. The absorbance of the solution was measured using a Tecan Infinite M1000 multiplate spectrophotometer at a wavelength of 570 nm [21].

[9] = system: cancer cell lines HT-1080 and MH-22A; assay: in vitro; assay type: cell-based
Description: as §2

SMILES | antiradical activity (ARA) [1] | electrochemical oxidation potential [2] | IC50 ([3]; Table 1) | IC50 ([4]; read-out: NIH3T3 IC50 (NR)) | IC50 (MH-22A (mouse hepatoma) [5]; Table 1) | IC50 (MH-22A (mouse hepatoma) [6]; Table 1) | Oxidation potential E^ox [7] | electrooxidation potential [7] | LD50 (calculated, NIH3T3) (NIH3T3) | IC50 [8] | antiradical activity (ARA), DPPH free radical scavenging ([1]; untreated DPPH level designated 100%) | IC50 ([3]; Table 2) | IC50 ([4]; read-out: NIH3T3 IC50 (NR), Table 2, 24 h exposure) | IC50 (MH-22A (mouse hepatoma) [5]; Table 2) | IC50 (MH-22A (mouse hepatoma) [6]; Table 2) | cytotoxicity to cancer cell lines HT-1080 and MH-22A (in words) [9]
CCOC(=O)C1=C(C)NC(C)=C(C(=O)OCC)C1 [Diludin, reference compound] | 40% | – | – | – | – | – | – | – | – | – | – | – | – | – | – | –
CCOC(=O)C1=C(C[n+]2ccccc2)NC(C[n+]2ccccc2)=C(C(=O)OCC)C1c1ccccc1.[Br-].[Br-] [compound 1, 1,1'-((3,5-Bis(ethoxycarbonyl)-4-phenyl-1,4-dihydropyridine-2,6-diyl)bis(methylene))-bis(pyridin-1-ium) dibromide] | – | 1.7 V | > 100 µg/mL | > 1000 µg/mL | > 100 µg/mL | > 100 µg/mL | 1.57 V | 1.57–1.58 V | > 2000 mg/kg | > 100 µg/mL | – | – | – | – | – | –
CCCCCCCCCCCCOC(=O)C1=C(C[n+]2ccc(N(C)C)cc2)NC(C[n+]2ccc(N(C)C)cc2)=C(C(=O)OCCCCCCCCCCCC)C1c1ccccc1.[Br-].[Br-] [compound 13, 1,1'-((3,5-Bis((dodecyloxy)carbonyl)-4-phenyl-1,4-dihydropyridine-2,6-diyl)bis(methylene))bis(4-(dimethylamino)pyridin-1-ium) dibromide] | – | – | 3 ± 0.6 µg/mL | 119 ± 13 µg/mL | 10 ± 3 µg/mL | 6 ± 2 µg/mL | – | – | – | 10 ± 1 µg/mL | 27% | – | – | – | – | –
COC(=O)C1=C(C[n+]2ccccc2)N(Cc2ccccc2)C(=O)CC1.[O-][Cl+3]([O-])([O-])[O-] [compound 29, 1-{[1-Benzyl-3-(methoxycarbonyl)-6-oxo-1,4,5,6-tetrahydropyridin-2-yl]methyl}pyridinium perchlorate] | – | – | – | – | – | – | 2.35 V | 2.35 V | – | > 100 µg/mL | – | > 100 µg/mL | 972 ± 27 µg/mL | > 100 µg/mL | > 100 µg/mL | inert
